# Bridge positions count the residues as written; N and C are the ends. Peptide text beside a SMILES is read from it.
# Legend:
# MRSA = assay: Checkerboard assay, peptide with Gentamicin; format: cell-based, Staphylococcus aureus; details: peptide with Gentamicin, class by ΣFIC
# Procedure: Then, the microorganism cultures (1 × 10^6 cfu/mL) were inoculated into the plate wells and incubated at 37 °C for 18 h. The optical densities of the cultures were measured using an ELISA plate reader (Biotech Minneapolis, MN, USA). The lowest cumulative fractional inhibitory concentration (ΣFIC) was calculated with the following equation:(1) ΣFIC=Compound A treated in combination/Compound A, test in alone+Compound B treated in combination/Compound B, test in alone
# ΣFIC ≤ 0.5 indicates synergy; 0.5 < Σ FIC ≤ 4 indicates an additive effect; and Σ FIC > 4 represents an antagonistic effect.
# chymotrypsin = chymotrypsin (Bos taurus, UniProt P00766); assay: Chymotrypsin inhibition assay; format: biochemical; parameters: key: N.I.: there was no inhibitory activity; details: substrate Succinyl-Ala-Ala-Pro-Phe-NHMec
# Procedure: Trypsin and chymotrypsin inhibition assays were performed as previously described. The substrate of trypsin and chymotrypsin were Phe-Pro-Arg-AMC and Succinyl-Ala-Ala-Pro-Phe-NHMec, respectively, and obtained from Bachem, Merseyside, UK. In the tryptase inhibition assay, peptide samples were first dissolved in tryptase assay buffer pH 7.6, containing 0.05 M Tris, 0.15 M NaCl and 0.2% (w/v) PEG 6000 (final volume 210 μL) to obtain different concentrations of 0.5, 1, 2 and 4 mM and then added to the wells of a black 96-well plate containing (Boc-Phe-Ser-Arg-NHMec, obtained from Bachem, Merseyside, UK) (50 μM). Before measurement, tryptase (2.5 μL from 1 mg/mL stock solution, Calbiochem, Nottingham, UK) was added to each well. The rate of hydrolysis of substrate was monitored continuously at 37 °C and 460 nm with a Fluostar Optima plate reader (BMG Labtech GmbH, Offenburg, Germany)
smiles,measurement,setting,value
CC(C)C[C@H](NC(=O)[C@H](C)NC(=O)CN)C(=O)N[C@@H](CCCNC(=N)N)C(=O)NCC(=O)N[C@H]1CSSC[C@@H](C(=O)N[C@@H](Cc2ccccc2)C(N)=O)NC(=O)[C@@H]2CCCN2C(=O)[C@H](CCC(N)=O)NC(=O)[C@@H]2CCCN2C(=O)[C@@H]2CCCN2C(=O)[C@H](Cc2ccc(O)cc2)NC(=O)[C@H](CO)NC(=O)[C@H](CCCCN)NC(=O)[C@H]([C@@H](C)O)NC(=O)[C@H](Cc2c[nH]c3ccccc23)NC1=O [RNF3L] (H-GALRGCWTKSYPPQPCF-NH2; disulfide 6-16; N-terminus assumed),effect of the combination with Gentamicin,MRSA,additive effect (0.5 < Σ FIC ≤ 4 indicates an additive effect)
same,Ki(µM) of Chymotrypsin,chymotrypsin,N.I.
